Test [1] has as its target T1, GluK2(VCQ)2a (Rattus norvegicus, UniProt P42260, I567V/Y571C). In words: calcium-sensitive fluorescence assay. It is filed as cell-based.
In test [2] the target is T1, GluK2(VCQ)2a. Description: calcium-sensitive fluorescence assay. It is filed as cell-based. The settings on record: agonist; with 150 µM BPAM344; Fluo buffer pH 7.4.

Like-named read-outs stand apart in the source and are kept apart here.

Broadly, the EC50 is the concentration giving half of the maximal effect.

T1 sequence (P42260 32-908 I567V/Y571C): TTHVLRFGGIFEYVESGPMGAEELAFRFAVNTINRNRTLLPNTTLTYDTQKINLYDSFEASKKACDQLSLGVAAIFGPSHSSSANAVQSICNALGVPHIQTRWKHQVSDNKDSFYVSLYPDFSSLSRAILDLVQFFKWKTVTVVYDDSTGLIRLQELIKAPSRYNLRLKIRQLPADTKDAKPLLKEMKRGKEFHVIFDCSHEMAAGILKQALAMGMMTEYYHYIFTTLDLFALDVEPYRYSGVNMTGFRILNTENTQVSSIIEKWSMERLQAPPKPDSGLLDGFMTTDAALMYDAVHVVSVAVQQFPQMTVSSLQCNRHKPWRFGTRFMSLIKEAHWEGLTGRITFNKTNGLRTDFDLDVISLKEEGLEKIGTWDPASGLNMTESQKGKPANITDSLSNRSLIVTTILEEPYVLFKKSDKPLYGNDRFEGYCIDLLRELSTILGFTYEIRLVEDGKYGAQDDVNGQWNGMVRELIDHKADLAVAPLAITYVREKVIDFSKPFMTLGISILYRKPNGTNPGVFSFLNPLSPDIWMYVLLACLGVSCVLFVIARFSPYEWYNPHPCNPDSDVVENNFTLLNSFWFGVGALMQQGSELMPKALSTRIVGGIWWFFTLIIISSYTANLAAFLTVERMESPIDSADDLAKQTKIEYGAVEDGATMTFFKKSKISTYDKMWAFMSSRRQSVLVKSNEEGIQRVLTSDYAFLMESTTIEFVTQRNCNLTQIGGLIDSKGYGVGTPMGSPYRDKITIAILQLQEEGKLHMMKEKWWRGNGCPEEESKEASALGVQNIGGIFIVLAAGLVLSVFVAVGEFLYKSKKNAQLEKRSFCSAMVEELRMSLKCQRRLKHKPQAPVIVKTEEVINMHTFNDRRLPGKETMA

As to `O=S1(=O)NCN(C2CC2)c2ccc(F)cc21` [BPAM344], the concentration giving a half-maximal response (EC50) at GluK2(VCQ)2a [1] was 75.4 µM.

With `C/C(=C/C=C/[C@@H](C)C(=O)O)[C@H]1CN[C@H](C(=O)O)[C@H]1CC(=O)O` [domoate], the 50% effective concentration (EC50) on GluK2(VCQ)2a [2] is 1.33 µM.

Values taken from publication doi:10.1101/2023.11.02.565282v1 (biorxiv, 2023).
